Measured values from a melting point compilation (Tetko et al.; mined from patent text by program, amines drawn as free bases though some values may be those of a salt).

SMILES	melting point
CC(C)(C)OC(=O)NCC(=O)c1cccnc1	98 to 99 °C
COc1ccc(C(=O)Nc2c(Cl)cncc2Cl)c2c1OC(C)(C)C=C2	174 to 178 °C
COc1cccc(C(=O)Nc2cnn(Cc3c(C)noc3C)c2)c1	127 to 129 °C
O=C(O)/C=C/c1ccc(-c2nc3c([nH]2)c(=O)n(CC2CCCCC2)c(=O)n3CC2CCCCC2)s1	> 300 °C
O=C(Nc1cccc(Oc2ccccn2)c1)c1ccn2c1CSC2c1cccnc1 (stereo not given)	132 °C
CC(C)(C)C1CCCC(=Cc2ccc(Cl)cc2)C1(O)Cn1cncn1 (stereo not given)	171 °C
CNC(=S)C1(c2ccccc2)CCCCC1=O (stereo not given)	86 °C
O=C(CNc1c(C(=O)O)[nH]c2cc(F)ccc12)c1ccccc1	142 to 143 °C
Nc1ccc(S(=O)(=O)N2CCCC(c3ccc(Cl)c(C(F)(F)F)c3)=N2)cc1	205 to 206 °C
CCOC(=O)c1ncn2c1CN=C(c1ccccc1F)c1cc(C#C[Si](C)(C)C)ccc1-2	196 to 198 °C
COc1ccc(S(=O)(=O)F)nn1	87 to 88 °C
COc1ccc(C(=O)N2CCc3cc(OCc4ccccc4)c(OC)cc3C2=O)cc1	151 to 152 °C
CCCCOc1cc(C(=O)O)cc(S(N)(=O)=O)c1-c1ccccc1	129 to 131 °C
Cc1ccc(S(=O)(=O)Nc2ccc(C#N)cc2[N+](=O)[O-])cc1	150 to 152 °C
CC(=O)OCC(=O)C1(OC(C)=O)C(C)CC2C3CC(C)C4=CC(=O)CCC4(C)C3(F)C(O)CC21C (stereo not given)	194 to 195 °C
CCCCC(O)c1c(C(C)C)nc(C(C)C)c(CO)c1-c1ccc(F)cc1 (stereo not given)	166 to 168 °C
CCCCNc1cc(Cl)nnc1NN	170 to 172 °C
Cc1cc(-c2noc(C(F)(F)F)n2)cc(C)c1OCCCc1ccc(Cl)nc1	89 to 91 °C
CNC(=O)C(CNC(=O)c1ccccc1)NC(=O)OC(C)(C)C (stereo not given)	222 to 223 °C
CSc1nccc(C(C)=NO)n1	150 to 152 °C
Cc1cc2c(cc1C(C)SCC(=O)O)OCO2 (stereo not given)	93.5 to 94.5 °C
CC(c1oc2ccccc2c(=O)c1-c1cccc(F)c1)n1nc(-c2ccc(F)c(O)c2)c2c(N)ncnc21 (stereo not given)	241 to 244 °C

SMILES	melting point
O=c1ccc2c(O)cc(O)cc2[nH]1	> 300 °C
CCCOC1CCC2C3CCC4=CC(=O)CCC4C3CCC12CC (stereo not given)	83 to 84 °C
CN(C)c1ccc(CN(C(=O)C2CCCc3c(O)cccc32)c2ccccc2)cc1 (stereo not given)	138 to 143 °C
CCC(=O)NC(C)(C)COc1cccc2nc(C)c(C(=O)O)c(N)c12	189 to 193 °C
C=CCOc1cc2c(cc1CC=C)N(CC=C(C)C)C(=O)CC2	86 to 88 °C
COc1nc(OC)nc(OC(=O)c2cccc3cc(O)ccc23)n1	166 to 168 °C
CCCCc1ccc(Nc2cc(C)nc3ccc(OC)cc23)cc1	200 to 201 °C
Cc1ncc(CCCCC(=O)O)s1	75 °C
COc1c(N(C)S(=O)(=O)c2ccc(C)cc2)ccccc1=O	94.5 °C
C=CCc1cc(CNC)ccc1C#CC1(O)CN2CCC1CC2 (stereo not given)	80 °C
O=C(c1ccccc1)c1cc([N+](=O)[O-])ccc1NC1CCCCC1	75 °C
Cc1c2ccccc2c(C(=O)O)c2c(C(=O)O)cccc12	275 to 280 °C
CS(=O)(=O)c1cccc(-n2c(=O)n(Cc3ccncc3)c(=O)c3cccnc32)c1	254 to 256 °C
O=C(O)c1cn(C2CSC2)c2c(F)c(F)c(F)cc2c1=O	172 to 175 °C
N=C(CC=O)c1ccccc1	80 to 82 °C
O=C1c2cc([N+](=O)[O-])cc([N+](=O)[O-])c2OC12CC2	158 to 161 °C
CCN1C(=O)N(c2cc(OC)cc(OC)c2)Cc2cnc(SC)nc21	134 to 136 °C
Cc1ccc(S(=O)(=O)N(C)c2ccc(F)cc2[N+](=O)[O-])cc1	93.5 to 94.5 °C
OCC1CCc2cc(OCc3ccccc3)ccc2O1 (racemic)	80 to 82 °C
Nc1sc2c(c1C(=O)c1ccccc1)CCN(C(=O)OCc1ccccc1)C2	138 to 140 °C
CC(=O)CC(=O)Nc1ccc(C(F)(F)F)cc1	144 to 145 °C
CCOC(=O)c1cn(CC)c2cc(F)c(F)c(C)c2c1=O	157 to 159 °C

SMILES	melting point
O=C(N[C@@H](CS)C(=O)O)C(Sc1nc2cc(Cl)ccc2s1)c1ccccc1 (stereo not given in full)	155 to 158 °C
COc1cc([N+](=O)[O-])c2c3c(c4ccccc4nc13)C=CN2	220 to 223 °C
COc1cc(C=O)ccc1Oc1nc(Nc2cccc(C(=O)O)c2)nc(Oc2ccccc2)n1	218 to 220 °C
CC(C)C(C)C=CC(C)C1CCC2C1(C)CCC1C23C=CC2(CC(O)CCC12C)OO3 (stereo not given)	165 to 169 °C
OC(c1ccccc1)C1CCN1C(c1ccccc1)c1ccccc1 (stereo not given)	87.5 to 88.5 °C
CCC1Cc2cc(OCCCC(=O)O)c(Cl)c(Cl)c2C1=O (stereo not given)	146 to 148 °C
O=C(CCCl)c1ccc2[nH]c3ccccc3c2c1	148 to 151 °C
O=[N+]([O-])c1ccc2sc(NCCCO)nc2c1	140 to 144 °C
CC1(C)CCC(C)(C)c2cc(C(O)COc3ccc(CO)c(O)c3)ccc21 (stereo not given)	110 to 115 °C
CC1CCc2cc(N3C[C@H](CO)OC3=O)ccc2N1C(=O)OCc1ccccc1 (stereo not given in full)	99 to 102 °C
COC(=O)c1cc(C(=O)c2c(C)c(N(C)C(=O)c3cccc(OC)c3)c3ccccn23)ccc1[N+](=O)[O-]	158 °C
Cn1c(-c2cccnc2)c(CCCCCC(=O)O)c2ccccc21	117 to 120 °C
NN=C(N)Nc1c(Cl)cccc1Cl	281 °C
Cc1cc(NS(=O)(=O)c2ccc(Nc3nc(OCC4CCCCC4)c4nc[nH]c4n3)cc2)nc(C)n1	233 °C
CCOC(=O)C(Sc1ccc(O)cc1)c1ccc(Cl)cc1 (stereo not given)	63 °C
CCCCCS(=O)(=O)NC(=O)/C=C/c1cc(OC2CCOCC2)nn1Cc1ccc(C(F)(F)F)cc1Cl	160 to 161 °C
CC(O)(C(=O)Nc1ccc(C(=O)c2ccccc2)cc1F)C(F)(F)F (stereo not given)	138 to 139 °C
Ic1cnn(-c2cccnc2)c1	145 to 146 °C
CCc1nc2c(N)nc3ccc(O)cc3c2n1CCCCNS(C)(=O)=O	128 to 130 °C
O=C1CCc2c1cccc2C(=O)c1ccccc1	86 to 88 °C
O=C(Cc1cc(O)no1)OC(c1ccccc1)c1ccccc1	105 to 106 °C

Continued, values first:

melting point	SMILES
171 to 175 °C	CN1CCN(CCCNc2ncc3cc(-c4c(Cl)cccc4Cl)c(NC(=O)Nc4ccc(Br)cc4)nc3n2)CC1
96 to 97 °C	CCOc1cc(OCCCc2cn(-c3ccc(C(F)(F)F)cn3)nc2OCC)ccc1CCC(=O)O
140 to 142 °C	O=C1CN(c2nccc(Oc3ccc(NC(=O)c4cc(F)cc(N5CCCCC5)c4)c4ccccc34)n2)CCN1
217 to 219 °C	CC(C)CC(=O)Nc1cncc(-c2ccnc3c(C(=O)c4cccs4)cnn23)c1
117 to 119 °C	CCc1cc(C(=O)c2ccccc2Cl)c(-n2c(C)nnc2COC(=O)c2ccc(Cl)c(Cl)c2)s1
90 to 91 °C	COc1ccc(CN2C(=O)CC2CC(=O)O)c(OC)c1 (stereo not given)
111 to 113 °C	CC(=O)n1nc(CBr)c(Oc2cc(Cl)cc(Cl)c2)c1C
192 to 194 °C	CCOP(=O)(O)COCCn1cnc2c(=O)[nH]c(N)nc21
55 to 56 °C	CCCCCCCCCCc1cc(CO)on1
188 to 192 °C	COc1ccc(C(=O)O)cc1NC(=O)C(CS)Cc1ccccc1 (stereo not given)
202 °C	O=c1c(C2CC2)c(N2CCC(c3ccccc3)CC2)ccn1CC1CC1
147 to 150 °C	Cc1cc([N+](=O)[O-])ccc1N1CCOCC1
239 to 242 °C	Clc1nc2cc3ccccc3cc2nc1Cl
153 to 156 °C	CC(C)CCc1c(-c2ccc(S(N)(=O)=O)c(F)c2)cnn(CC(F)(F)F)c1=O
117 to 119 °C	COc1ccc2cc(COC(C)(C(=O)O)C(F)(F)F)ccc2c1 (stereo not given)
210 to 211 °C	COC(=O)c1ccc(-c2nnc(-c3ccc(C(C)(C)C)cc3)o2)cc1
205 to 207 °C	O=C(C1=C(c2ccccc2)c2ccc(O)cc2CC1)c1ccc(O)cc1
137 to 138 °C	COc1ccc(-c2cc(=S)n(Cc3ccc(F)cc3)nc2-c2ccc(OC)cc2)cc1

melting point	SMILES
171 to 178 °C	COc1ccc(-c2cc3ncnc(Nc4ccc5[nH]ccc5c4)c3s2)cc1OC
149 to 150 °C	CC(=O)c1ccc(S)cc1OCC(=O)O
198 to 200 °C	C=Cc1c(F)c(N2CCN(CC)CC2)c(F)c2c1c(=O)c(C(=O)O)cn2C1CC1
116 to 117 °C	CC(C)(C)OCC(NC(=O)c1ccc2c(Cl)cnc(Cl)c2c1)C(=O)OC(C)(C)C (racemic)
103 to 105 °C	CON(C(=O)c1ccc(C(=O)C(C)(C)C)cc1)C(=O)c1ccc(C(=O)C(C)(C)C)cc1
208 to 209 °C	CCOC(=O)C1=C(C)NC(=S)NC1c1cccc([N+](=O)[O-])c1 (stereo not given)
240 to 242 °C	Cn1c(C(F)(F)F)cc(=O)n(-c2ccc3snc(CC(=O)O)c3c2)c1=O
90 °C	CCCCCCN(C(=O)Cc1ccccc1)c1nnc(C)s1
133 to 135 °C	CC(=O)C1CCC2C3CCC4CC(=O)CCC4(C)C3C(OC(=O)CCl)CC12C (stereo not given)
57 to 58 °C	CCN(CC)c1cc2cnnn2c(C)n1
218 to 223 °C	CCOC(=O)c1ccc(NN2CN(Nc3ccc(C(=O)OCC)cc3)CN(Nc3ccc(C(=O)OCC)cc3)C2)cc1
84 to 86 °C	CS(=O)(=O)c1ccc(OCCCCl)cc1
242 °C	OC1Cn2ccnc2C(=C2CCN(CCc3ccc(OCc4ccc5ccccc5n4)cc3)CC2)c2ccsc21 (stereo not given)
115 °C	Clc1ccc2c(c1)CCc1cccnc1C2=C1CCN(Cc2cccnc2)CC1
64 °C	CCS(=O)(=O)OC(c1cccc(C(O)(C(F)(F)F)C(F)(F)F)c1)(C(F)(F)F)C(F)(F)F
197 to 198 °C	CC1(C)OC(=O)Nc2c(O)cc(-c3cc(F)cc(C#N)c3)cc21
65 to 75 °C	FC(F)Oc1ccc(C2=NNCC2c2ccccc2)cc1 (stereo not given)
